Test results published in patent US5688767A, “Treatment of endotoxin-associated disorders with cationic peptides” (priority 1996, dated 1997).

Legend:
S. aureus = test: microbe, parasite or virus in culture; format: cell-based, Staphylococcus aureus
Description: The minimum inhibitory concentrations of (MIC) of CEME, CEMA and melittin were determined for a number of different bacteria (Table 2). Briefly, cells were grown overnight at 37° C. in LB-S (Luria broth without any salt supplement) and diluted one in 10,000 in the same medium to give concentrations of about 10^4 to 10^5 CFU/ml. The broth dilutions were set up in a 96 well microtiter plate by putting 200 μl of LB-S containing the initial concentration of antibiotic or compound in column 1 and 100 μl of the same medium in columns 2-12. The compounds were diluted by taking 100 μl of broth from column 1 and mixing it with column 2, resulting in a one in two dilution. This was continued to column 10. Finally, 10 μl of bacteria were pipetted into columns 1-11, and the plates incubated overnight at 37° C. The next day the plates were scored for growth in the wells, and the MIC determined.

[1] = test system: P. aeruginosa H309 or E. cloacae 218R1; format: cell-based, Pseudomonas aeruginosa; Enterobacter cloacae; conditions: 10 μM NPN
From the text: The second assay determined membrane permeability by the ability of 1-N-phenylnaphthylamine(NPN), a small fluorescent probe, to insert itself into the membrane. Normally, very little NPN can penetrate the outer membrane, but in the presence of a membrane permeabilizer it can insert into the hydrophobic membrane resulting in an increase in fluorescence (FIGS. 7 and 8). This N-phenylnaphthylamine uptake assay was previously described by Loh, et al., Antimicrobial Agents and Chemo., 26:546, 1984. Cells were prepared exactly the same as for the lysozyme lysis assay. 1-N-phenylnaphthylamine(NPN) was dissolved in acetone at a concentration of 500 μM. NPN fluorescence was measured in a Perkin-Elmer 650-10S fluorescent spectrophotometer using excitation and emission wavelengths set to 350 nm and 420 nm respectively, with slit widths of 5 nm. The assay was standardized by adding 20 μl of NPN (final concentration of 10 μM) and 10 μl of 0.64 mg/ml of polymyxin B (final concentration of 6.4 μg/ml) into 1 ml of cells, and adjusting the resulting fluorescence to read 90% deflection (90 arbitrary units). Various compounds were tested by adding 10 μl of different concentrations to a cuvette containing 1 ml of cells and 10 μM NPN. Permeabilizing activity was designated as the total fluorescence minus the fluorescence due to NPN alone. Following the fluorescence measurement, the OD600 of the cells was taken to ensure no significant cell lysis had occurred.

[2] = test system: LPS-induced TNF in RAW 264.7 macrophage cells; test: Inhibition of LPS-mediated TNF induction in RAW 264.7 macrophages (L929 cytotoxicity readout); format: cell-based, murine; conditions: for Unit of TNF induced / Unit of TNF induced (% of control): 100 ng purified E. coli 0111:B4 LPS, 20 μg of peptide or polymyxin B; for block of induction of TNF: 20 μg/ml, E. coli 0111:B4 and E. coli Bort LPS; for block of LPS induction of TNF: added up to 60 minutes after LPS
Description: The effect of CEME and CEMA peptides on LPS-induced TNF in macrophages was examined. RAW 264.7 macrophage cells were grown by seeding 10^6 cells into a 162 cm^2 cell culture flask and incubated at 37° C., 5% CO2 for 1 week. RAW cell media (Dulbecco's Modified Eagle Medium with Hepes buffer 450 ml; 2.4 mM L-glutamine 3 ml (400 mM); Pen/Strep 3 ml (10^4 U/ml of Pen, 1 mg/ml strep); and 10% heat inactivated fetal bovine serum (FBS) 50 ml) was then completely removed from flasks. 10 mls of cell dissociation solution (Sigma) was added to each flask and incubated at 37° C. for 10 minutes. Cells were removed from flasks, diluted in RAW cell media and centrifuged for 6 minutes. The cell pellet was resuspended in 5 ml of media/flask used. […] cell suspension was removed and added to 400 μl of trypan blue and cells were counted using a hemocytometer. The cell suspension was diluted to 1×10^6cells/ml and 1 ml of suspension was added per well of a 24 well plate. The 24 well plates were incubated at 37° C., 5% CO2 overnight for use in the assay.
After an overnight incubation, the media was aspirated from all the wells. 100 μl of Lipopolysaccharide (LPS) was added at 100 ng/100 μl. CEME or CEMA was added at the desired concentration/100 μl to specified wells. […] The plates were then incubated for six hours at 37° C., 5% CO2. The supernatant was then removed from the wells and stored overnight at 4° C. For those wells in which whole bacteria were added directly to the wells, the supernatant was centrifuged in 0.2 μm filter eppendorf tubes for 5 minutes.
The supernatants were then used in cell cytotoxic L929 assay. The samples were transferred to 96 well plates. 50 μl of TNF media was added to all the wells in all the plates except to those wells in the first row. 10 μl of murine TNF standard (20 ng/ml) and 90 μl of TNF media was added in duplicate to the plate and diluted 1:2 down the plate to the second to last row. Test samples (75 μl), comprising of the supernatants from the RAW cell assays, were added to separate rows in duplicate and diluted 1:3 to the second to last rows.
TNF-sensitive L929 mouse fibroblast cells were grown by seeding 10^6 cells into a 162 cm^2 cell culture flask and left to grow for 1 week. L929 cells were removed from the flask with 10 mls of trypsin-EDTA/flask and incubated 3-5 minutes. Cell suspension was diluted and centrifuged for 6 minutes. The pellet was resuspended in 5 mls of fresh L929 media/flask and counted (same as RAW cells). Cell suspension was diluted to 10^6 cells/ml. 100 μl was used to inoculate each well of the 96 well plates with the supernatants. (L929 Growth Media was the same as RAW cell media except instead of FBS, 50 mls of 10% heat inactivated horse serum was utilized; TNF Assay Media was the same as RAW cell media except 4 μg/ml Actinomycin D was added.)
The plates were incubated at 37° C. at 5% CO2 for 2 days. The media was then aspirated and replaced with 100 μl of the dye MTT (0.5 mg/ml) in modified Eagle Medium without phenol red. The plates were then incubated at 37° C. at 5% CO2 for 3 hours. The dye was then removed and replaced with 100 μl of absolute ethanol. The plates were left at room temperature for 10-15 minutes to dissolve the formazan dye crystals.
The plates were read at 570 nm in a ELISA plate reader with 690 nm reference filter. One unit of TNF activity is defined as the amount required to kill 50% of the L929 cells. The TNF level in Units per ml therefore was the reciprocal of the dilution which led to a 50% killing of L929 cells. […]
The murine cell line RAW 264.7 was obtained from ATCC, (Rockville, Md.), and maintained and passaged as described previously (Kelly, et al., supra). TNF induction experiments with LPS were performed as described by Kelly, et al. (supra) Briefly, Dulbecco's modified Eagle medium was aspirated from RAW 264.7 cell grown overnight in 24 well tissue culture plates after seeding with 10^6 cell per ml per well and replaced with fresh medium. […]

[3] = strain RN4220, Methicillin sensitive
[4] = strain SAP0017, Methicillin resistant

Compound	MIC (S. aureus; [3]) [µg/mL]	MIC (S. aureus; [4]) [µg/mL]	activity in opening up the membrane to NPN [1]	concentration of peptide that efficiently reduces LPS-induced TNF ([2]; 100 ng of E. coli 0111:B4 or E. coli Bort LPS, 6 hour) [µg/mL]	Unit of TNF induced [2] [units/ml]	Unit of TNF induced (% of control) [2] [%]	reduction of TNF induction ([2]; 2 μg/ml of peptide, E. coli 0111:B4 LPS 100 ng/ml)	block of induction of TNF [2]	blockage of TNF induction, in words ([2]; 20-50 μg/ml of peptides, E. coli 0111:B4 LPS 100 ng/ml)	TNF produced by peptide alone ([2]; CEMA (20 μg) alone, no LPS) [units/ml]	block of LPS induction of TNF [2] [%]
CC[C@H](C)[C@H](NC(=O)CNC(=O)[C@@H](NC(=O)[C@H](CCCCN)NC(=O)[C@H](CCCCN)NC(=O)[C@H](Cc1ccccc1)NC(=O)[C@H](CC(C)C)NC(=O)[C@H](CCCCN)NC(=O)[C@H](Cc1c[nH]c2ccccc12)NC(=O)[C@@H](N)CCCCN)[C@@H](C)CC)C(=O)NCC(=O)N[C@@H](C)C(=O)N[C@H](C(=O)N[C@@H](CC(C)C)C(=O)N[C@@H](CCCCN)C(=O)N[C@H](C(=O)N[C@@H](CC(C)C)C(=O)N[C@H](C(=O)N[C@H](C(=O)NCC(=O)N[C@@H](CC(C)C)C(=O)N1CCC[C@H]1C(=O)N[C@@H](C)C(=O)N[C@@H](CC(C)C)C(=O)N[C@@H](CCCCN)C(=O)N[C@@H](CC(C)C)C(=O)N[C@H](C(=O)N[C@@H](CCCCN)C(=O)O)[C@@H](C)O)[C@@H](C)O)[C@@H](C)O)C(C)C)C(C)C [CEMA]	> 5.6	> 5.6	equally active	≤ 5	566 ± 69	5.8	more than 50%	approximately 100%	almost complete blockage	50 ± 3	99
polymyxin B	> 8	> 8	equally active		573 ± 4	5.8		approximately 100%			81
